Source: article PMC2206373, “Identification of an altered peptide ligand based on the endogenously presented, rheumatoid arthritis-associated, human cartilage glycoprotein-39(263–275) epitope: an MHC anchor variant peptide for immune modulation” (Arthritis Research & Therapy, 2007)
Like-named read-outs stand apart in the source and are kept apart here. Non-standard residues stand in square brackets, D forms with d. Residues, ends and D or L forms follow the SMILES beside them. No end group written: not given here. *: point of attachment. Phe(4-NO2) = N[C@@H](Cc1ccc([N+](=O)[O-])cc1)C(=O)O; Phe(4-Cl) = N[C@@H](Cc1ccc(Cl)cc1)C(=O)O; Phe(4-F) = N[C@@H](Cc1ccc(F)cc1)C(=O)O; Phe(4-I) = N[C@@H](Cc1ccc(I)cc1)C(=O)O; hPhe = N[C@@H](CCc1ccccc1)C(=O)O; 3Pal = N[C@@H](Cc1cccnc1)C(=O)O; 2Thi = N[C@@H](Cc1cccs1)C(=O)O; Cha = N[C@@H](CC1CCCCC1)C(=O)O; Bn = c1ccc(C*)cc1

Tests used:
HLA-DR4(B1*0401) = HLA-DR4(B1*0401) (Homo sapiens, UniProt P01903+P01911, A100K/A169T/F76Y/I96L/K127E/L162R/M171V/N62H/P40V/Q125Y/R42H/S133A/S149N/S66Y/V115G/V209L/W38E); experiment: HLA-DR4 competition peptide binding assay; conditions: competition with biotinylated HA307-319 (Y309F) 50 nM, purified HLA-DR4 30 nM, pH 5, 48 h, room temperature
Method: HLA-DR bound marker peptide was separated from free marker peptide and the amount of bound marker peptide was detected and quantified by enhanced chemoluminescense. Inhibition curves were generated and the IC50 was determined. The concentration of competitor peptide inducing 50% inhibition of marker peptide binding was determined, and expressed as the 50% inhibitory concentration (IC50 in μM).

T cell hybridoma 5G11 = experiment: T hybridoma 5G11 IL-2 response; assay type: cell-based, mouse; conditions: Figure 1; IL-2 production, DRB1*0401 BLCL as APC; duplicate or triplicate; background 29,203 counts; ±30% of WT response = super/partial agonist
Method: (§1) The T cell hybridomas, provided by G Sonderstrup (Stanford, CA, USA), were generated as described. In brief, human CD4, HLA-DRA*101/HLA-DRB*0401 triple transgenic (HLA-DR4trg) mice (devoid of I-Aβ) were immunized in the footpad with 50 μg of purified HC gp-39 mixed in incomplete Freund's adjuvant (IFA). Draining lymph nodes were isolated and T-cell hybridomas were generated by polyethylene glycol fusion of primed and in vitro antigen-restimulated lymph node cells with the AKR BW5147 fusion partner. Following fusion, growth-positive hybridoma wells were screened for reactivity to HC gp-39 and a set of 55 peptides (16 amino acids in length) covering the entire HC gp-39 sequence. HLA-DR4(B1*0401)-restricted hybridomas responsive to both the HC gp-39 protein and the immunodominant epitope 263–275 of HC gp-39 (for example, 5G11, 8B12, 14G11 and 20H5) were cloned, subcloned, characterised and selected for further study.
(§2) HC gp-39-specific IL-2 production by T hybridomas was measured in wells of round-bottomed microtiter plates. Hybridoma cells (2 to 5 × 10^4) and irradiated APC (0.5 to 1 × 10^5; 12,000 to 16,000 RAD) from the B lymphoblastoid cell line (BLCL) carrying the DRB1*0401 specificity were incubated in 150 μl volumes. Antigen was added in 50 μl volumes to duplicate wells. After 48 h, 100 μl of the culture supernatant was assayed for IL-2 production using a sandwich ELISA with Pharmingen antibodies specific for mouse IL-2. The antigen sensitivity of the hybridomas to both peptide and protein was determined (Figure 2). […] In later assays, an excess of peptide or APL (10 μg/ml), inducing maximal responses in all hybridomas, was tested.

T cell hybridoma 8B12 = experiment: T hybridoma 8B12 IL-2 response; assay type: cell-based, mouse; conditions: Figure 1; IL-2 production, DRB1*0401 BLCL as APC; duplicate or triplicate; background 16,288 counts; ±30% of WT response = super/partial agonist
Method: as §1, §2

T cell hybridoma 14G11 = experiment: T hybridoma 14G11 IL-2 response; assay type: cell-based, mouse; conditions: Figure 1; IL-2 production, DRB1*0401 BLCL as APC; duplicate or triplicate; background 7,152 counts; ±30% of WT response = super/partial agonist
Method: as §1, §2

[1] = Figure 1, read-out: DRB1*0401 binding IC50
[2] = Table 2, read-out: HLA-DR binding IC50
[3] = Table 1, geometric mean of two experiments, read-out: HLA-DR binding IC50

IC50 (HLA-DR4(B1*0401); [1]) [nM]	IC50 (HLA-DR4(B1*0401); [2]) [nM]	Compound	T hybridoma (SI) 5G11 (T cell hybridoma 5G11) [SI]	other results
12	–	CC(C)C[C@H](NC(=O)[C@@H](NC(=O)[C@H](Cc1ccc(F)cc1)NC(=O)[C@H](CO)NC(=O)[C@@H](N)CCCNC(=N)N)[C@@H](C)O)C(=O)N[C@@H](C)C(=O)N[C@@H](CO)C(=O)N[C@@H](CO)C(=O)N[C@@H](CCC(=O)O)C(=O)N[C@H](C(=O)NCC(=O)N[C@H](C(=O)NCC(=O)O)C(C)C)[C@@H](C)O [Compound 30] (H-RS[Phe(4-F)]TLASSETGVG-OH)	29	T hybridoma (SI) 8B12 (T cell hybridoma 8B12): 17 SI; T hybridoma (SI) 14G11 (T cell hybridoma 14G11): 27 SI
–	50	RSFTLASSETGVA [Compound 22]	–	–
9	–	CC(C)C[C@H](NC(=O)[C@@H](NC(=O)[C@H](Cc1ccc(Cl)cc1)NC(=O)[C@H](CO)NC(=O)[C@@H](N)CCCNC(=N)N)[C@@H](C)O)C(=O)N[C@@H](C)C(=O)N[C@@H](CO)C(=O)N[C@@H](CO)C(=O)N[C@@H](CCC(=O)O)C(=O)N[C@H](C(=O)NCC(=O)N[C@H](C(=O)NCC(=O)O)C(C)C)[C@@H](C)O [Compound 31] (H-RS[Phe(4-Cl)]TLASSETGVG-OH)	32	T hybridoma (SI) 8B12 (T cell hybridoma 8B12): 14 SI; T hybridoma (SI) 14G11 (T cell hybridoma 14G11): 29 SI
–	50	RSFTLASSETAVG [Compound 20]	–	–
13	–	CC(C)C[C@H](NC(=O)[C@@H](NC(=O)[C@H](Cc1ccc([N+](=O)[O-])cc1)NC(=O)[C@H](CO)NC(=O)[C@@H](N)CCCNC(=N)N)[C@@H](C)O)C(=O)N[C@@H](C)C(=O)N[C@@H](CO)C(=O)N[C@@H](CO)C(=O)N[C@@H](CCC(=O)O)C(=O)N[C@H](C(=O)NCC(=O)N[C@H](C(=O)NCC(=O)O)C(C)C)[C@@H](C)O [Compound 34] (H-RS[Phe(4-NO2)]TLASSETGVG-OH)	32	T hybridoma (SI) 8B12 (T cell hybridoma 8B12): 20 SI; T hybridoma (SI) 14G11 (T cell hybridoma 14G11): 33 SI
–	–	RSFTLASSETGV [Compound 2]	–	IC50 (HLA-DR4(B1*0401); [3]): 90 nM
16	–	CC(C)C[C@H](NC(=O)[C@@H](NC(=O)[C@H](Cc1cccnc1)NC(=O)[C@H](CO)NC(=O)[C@@H](N)CCCNC(=N)N)[C@@H](C)O)C(=O)N[C@@H](C)C(=O)N[C@@H](CO)C(=O)N[C@@H](CO)C(=O)N[C@@H](CCC(=O)O)C(=O)N[C@H](C(=O)NCC(=O)N[C@H](C(=O)NCC(=O)O)C(C)C)[C@@H](C)O [Compound 29] (H-RS[3Pal]TLASSETGVG-OH)	23	T hybridoma (SI) 8B12 (T cell hybridoma 8B12): 19 SI; T hybridoma (SI) 14G11 (T cell hybridoma 14G11): 44 SI
–	–	SFTLASSETGV [Compound 9]	–	IC50 (HLA-DR4(B1*0401); [3]): 120 nM
–	–	SFTLASSETGVG [Compound 5]	–	IC50 (HLA-DR4(B1*0401); [3]): 90 nM
–	80	RSFTAASSETGVG [Compound 14]	–	–
–	100	RAFTLASSETGVG [Compound 11]	–	–
–	60	RSFALASSETGVG [Compound 13]	–	–
–	60	RSFTLASSETGAG [Compound 21]	–	–
–	–	RSFTLASSETG [Compound 3]	–	IC50 (HLA-DR4(B1*0401); [3]): 200 nM
–	40	RSFTLASSATGVG [Compound 18]	–	–
–	50	RSFTLASAETGVG [Compound 17]	–	–
–	100	ASFTLASSETGVG [Compound 10]	–	–
7	–	CC(C)C[C@H](NC(=O)[C@@H](NC(=O)[C@H](CC1CCCCC1)NC(=O)[C@H](CO)NC(=O)[C@@H](N)CCCNC(=N)N)[C@@H](C)O)C(=O)N[C@@H](C)C(=O)N[C@@H](CO)C(=O)N[C@@H](CO)C(=O)N[C@@H](CCC(=O)O)C(=O)N[C@H](C(=O)NCC(=O)N[C@H](C(=O)NCC(=O)O)C(C)C)[C@@H](C)O [Compound 25] (H-RS[Cha]TLASSETGVG-OH)	32	T hybridoma (SI) 8B12 (T cell hybridoma 8B12): 18 SI; T hybridoma (SI) 14G11 (T cell hybridoma 14G11): 26 SI
–	–	RSFTLASSET [Compound 4]	–	IC50 (HLA-DR4(B1*0401); [3]): 7000 nM
9	–	CC(C)C[C@H](NC(=O)[C@@H](NC(=O)[C@H](Cc1cccs1)NC(=O)[C@H](CO)NC(=O)[C@@H](N)CCCNC(=N)N)[C@@H](C)O)C(=O)N[C@@H](C)C(=O)N[C@@H](CO)C(=O)N[C@@H](CO)C(=O)N[C@@H](CCC(=O)O)C(=O)N[C@H](C(=O)NCC(=O)N[C@H](C(=O)NCC(=O)O)C(C)C)[C@@H](C)O [Compound 26] (H-RS[2Thi]TLASSETGVG-OH)	23	T hybridoma (SI) 8B12 (T cell hybridoma 8B12): 18 SI; T hybridoma (SI) 14G11 (T cell hybridoma 14G11): 31 SI
7	–	CC(C)C[C@H](NC(=O)[C@@H](NC(=O)[C@H](COCc1ccccc1)NC(=O)[C@H](CO)NC(=O)[C@@H](N)CCCNC(=N)N)[C@@H](C)O)C(=O)N[C@@H](C)C(=O)N[C@@H](CO)C(=O)N[C@@H](CO)C(=O)N[C@@H](CCC(=O)O)C(=O)N[C@H](C(=O)NCC(=O)N[C@H](C(=O)NCC(=O)O)C(C)C)[C@@H](C)O [Compound 35] (H-RSS(Bn)TLASSETGVG-OH)	28	T hybridoma (SI) 8B12 (T cell hybridoma 8B12): 20 SI; T hybridoma (SI) 14G11 (T cell hybridoma 14G11): 31 SI
–	–	FTLASSETGVG [Compound 6]	–	IC50 (HLA-DR4(B1*0401); [3]): 110 nM
–	50	RSFTLAASETGVG [Compound 16]	–	–
15	–	CC(C)C[C@H](NC(=O)[C@@H](NC(=O)[C@H](CCc1ccccc1)NC(=O)[C@H](CO)NC(=O)[C@@H](N)CCCNC(=N)N)[C@@H](C)O)C(=O)N[C@@H](C)C(=O)N[C@@H](CO)C(=O)N[C@@H](CO)C(=O)N[C@@H](CCC(=O)O)C(=O)N[C@H](C(=O)NCC(=O)N[C@H](C(=O)NCC(=O)O)C(C)C)[C@@H](C)O [Compound 24] (H-RS[hPhe]TLASSETGVG-OH)	–	–
< 9	–	CC(C)C[C@H](NC(=O)[C@@H](NC(=O)[C@H](Cc1ccc(I)cc1)NC(=O)[C@H](CO)NC(=O)[C@@H](N)CCCNC(=N)N)[C@@H](C)O)C(=O)N[C@@H](C)C(=O)N[C@@H](CO)C(=O)N[C@@H](CO)C(=O)N[C@@H](CCC(=O)O)C(=O)N[C@H](C(=O)NCC(=O)N[C@H](C(=O)NCC(=O)O)C(C)C)[C@@H](C)O [Compound 33] (H-RS[Phe(4-I)]TLASSETGVG-OH)	26	–
–	40	RSFTLASSEAGVG [Compound 19]	–	–
